The text below walks through data of ChEMBL document CHEMBL5375972, “Discovery of Novel 2,3-Dihydro-1H-indene-5-sulfonamide NLRP3 Inflammasome Inhibitors Targeting Colon as a Potential Therapy for Colitis” (J Med Chem, 2023).

Calls of active or inactive are those of the source. The calls are words filed in the database; no cut-off is given here.

Type in all cases: functional, organism-based
What all share (details): time 9.0 day

Experiment [1] deals with Mus musculus. Nature of the experiment: Anti-inflammatory activity in DSS-induced ulcerative colitis C57BL/6 mouse model assessed as increase in body weight at 10 mg/kg,ip administrated for 9 days.
Experiment [2] deals with Mus musculus. The experiment is described as follows: Anti-inflammatory activity in DSS-induced ulcerative colitis C57BL/6 mouse model assessed as reduction in disease activity index (DAI) score at 10 mg/kg,ip administrated for 9 days.
Experiment [3] has as its system Mus musculus. Nature of the experiment: Anti-inflammatory activity in DSS-induced ulcerative colitis C57BL/6 mouse model assessed as increase in colon length at 10 mg/kg,ip administrated for 9 days.
Experiment [4] deals with Mus musculus. Nature of the experiment: Anti-inflammatory activity in DSS-induced ulcerative colitis C57BL/6 mouse model assessed as reduction in histological colitis severity score at 10 mg/kg,ip administrated for 9 days.

Consider `CC(C)(O)c1coc(S(=O)(=O)NC(=O)Nc2c3c(cc4c2CCC4)CCC3)c1`, for which the outcome in the experiment with Mus musculus [1], with Mus musculus [2] and in the experiment with Mus musculus [3] was Active. Moreover, the outcome in the experiment on Mus musculus [4] was inactive.
